Patent US20240238423A9, “TETRAHYDROISOQUINOLINE HETEROBIFUNCTIONAL BCL-XL DEGRADERS” (Treeline Biosciences, Inc., priority 2022, published 2024)
Like-named read-outs stand apart in the source and are kept apart here.

Molecular target: T1, Human BCL-XL protein (N-terminal HiBiT tagged BCL-XL in HT1080 cells) (Homo sapiens, UniProt Q07817)
T1 construct: expressed in transfected cells; host or cells: HT-1080 (ATCC CCL-121), stably transduced with lentivirus pLV-UBC-N-HiBiT-BCL-XL-PGK-puro and selected with puromycin
T1 sequence (Q07817 whole entry): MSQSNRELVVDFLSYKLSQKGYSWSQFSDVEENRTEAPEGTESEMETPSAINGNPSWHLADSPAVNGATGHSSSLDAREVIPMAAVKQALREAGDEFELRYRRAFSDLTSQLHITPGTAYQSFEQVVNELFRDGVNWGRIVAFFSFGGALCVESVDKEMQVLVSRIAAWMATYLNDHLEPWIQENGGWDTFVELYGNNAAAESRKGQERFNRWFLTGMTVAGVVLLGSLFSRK
Assay: HiBiT based degradation assay
Format: cell-based
Conditions: HT1080 cells expressing HiBiT-BCL-XL; for Ymin (6 h) / Ymin (24 h): BCL-XL degradation normalized with DMSO control; for DC50: BCL-XL degradation
Method in brief: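 This HiBiT degradation assay measured loss of BCL-XL in HT1080 cells that stably express an N-terminal HiBiT-BCL-XL fusion delivered by lentivirus. Cells were added to compound-spotted 384-well plates, and luminescence was read on a PHERAstar FSX reader. Signal was expressed relative to DMSO controls, curves were fitted by four-parameter logistic regression, and for hook-shaped curves the Ymin point served as the bottom plateau when calculating EC50.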

Row | SMILES | Ymin (6 h) | Ymin (24 h) | DC50 (6 h, read-out: EC50 (6 h)) | DC50 (24 h, read-out: EC50 (24 h))
1 | Cc1c(OCCCN2CCC(CC(=O)Nc3cccc4c(C5CCC(=O)NC5=O)nn(C)c34)CC2)cccc1-c1ccc(N2CCc3cccc(C(=O)Nc4nc5ccccc5s4)c3C2)nc1C(=O)O (stereo not drawn) [Compound 122, 6-[8-(1,3-benzothiazol-2-ylcarbamoyl)-3,4-dihydro-1H-isoquinolin-2-yl]-3-[3-[3-[4-[2-[[3-(2,6-dioxo-3-piperidyl)-1-methyl-indazol-7-yl]amino]-2-oxo-ethyl]-1-piperidyl]propoxy]-2-methyl-phenyl]pyridine-2-carboxylic acid] | B (50% ≤ Ymin < 70%) | B (50% ≤ Ymin < 70%) | < 100 nM | < 100 nM
2 | Cc1c(Oc2ccc(CCCNc3ccc4c(C5CCC(=O)NC5=O)nn(C)c4c3)cc2)cccc1-c1ccc(N2CCc3cccc(C(=O)Nc4nc5ccccc5s4)c3C2)nc1C(=O)O (stereo not drawn) [Compound 123, 6-[8-(1,3-benzothiazol-2-ylcarbamoyl)-3,4-dihydro-1H-isoquinolin-2-yl]-3-[3-[4-[3-[[3-(2,6-dioxo-3-piperidyl)-1-methyl-indazol-6-yl]amino]propyl]phenoxy]-2-methyl-phenyl]pyridine-2-carboxylic acid] | C (Ymin ≥ 70%) |  | 100 to 1000 nM | 
3 | Cn1nc(C2CCC(=O)NC2=O)c2ccc(NC(=O)CN3CCN(CCOc4cccc(-c5ccc(N6CCc7cccc(C(=O)Nc8nc9ccccc9s8)c7C6)nc5C(=O)O)c4C(F)(F)F)CC3)cc21 (stereo not drawn) [Compound 126, 6-(8-(benzo[d]thiazol-2-ylcarbamoyl)-3,4-dihydroisoquinolin-2(1H)-yl)-3-(3-(2-(4-(2-((3-(2,6-dioxopiperidin-3-yl)-1-methyl-1H-indazol-6-yl)amino)-2-oxoethyl)piperazin-1-yl)ethoxy)-2-(trifluoromethyl)phenyl)picolinic acid] | B (50% ≤ Ymin < 70%) |  | 100 to 1000 nM | 
4 | Cc1c(OCCCN2C[C@H]3CC[C@@H](C2)N3CC(=O)Nc2ccc3c(C4CCC(=O)NC4=O)nn(C)c3c2)cccc1-c1ccc(N2CCc3cccc(C(=O)Nc4nc5ccccc5s4)c3C2)nc1C(=O)O (stereo partly drawn) [Compound 127, 6-(8-(benzo[d]thiazol-2-ylcarbamoyl)-3,4-dihydroisoquinolin-2(1H)-yl)-3-(3-(3-((1R,5S)-8-(2-((3-(2,6-dioxopiperidin-3-yl)-1-methyl-1H-indazol-6-yl)amino)-2-oxoethyl)-3,8-diazabicyclo[3.2.1]octan-3-yl)propoxy)-2-methylphenyl)picolinic acid] | B (50% ≤ Ymin < 70%) | A (Ymin < 50%) | < 100 nM | < 100 nM
5 | Cc1c(Oc2ccccc2CCCC(=O)Nc2cccc3c(C4CCC(=O)NC4=O)nn(C)c23)cccc1-c1ccc(N2CCc3cccc(C(=O)Nc4nc5ccccc5s4)c3C2)nc1C(=O)O (stereo not drawn) [Compound 128, 6-(8-(benzo[d]thiazol-2-ylcarbamoyl)-3,4-dihydroisoquinolin-2(1H)-yl)-3-(3-(2-(4-((3-(2,6-dioxopiperidin-3-yl)-1-methyl-1H-indazol-7-yl)amino)-4-oxobutyl)phenoxy)-2-methylphenyl)picolinic acid] | C (Ymin ≥ 70%) | C (Ymin ≥ 70%) | 1000 to 10000 nM | < 100 nM
6 | Cc1c(CCCCN2CCN(CC(=O)Nc3ccc4c(C5CCC(=O)NC5=O)nn(C)c4c3)CC2)cccc1-c1ccc(N2CCc3cccc(C(=O)Nc4nc5ccccc5s4)c3C2)nc1C(=O)O (stereo not drawn) [Compound 130, 6-[8-(1,3-Benzothiazol-2-ylcarbamoyl)-3,4-dihydro-1H-isoquinolin-2-yl]-3-[3-[4-[4-[2-[[3-(2,6-dioxo-3-piperidyl)-1-methyl-indazol-6-yl]amino]-2-oxo-ethyl]piperazin-1-yl]butyl]-2-methyl-phenyl]pyridine-2-carboxylic acid] | A (Ymin < 50%) | A (Ymin < 50%) | < 100 nM | < 100 nM
7 | Cc1c(OCCCN2CCN(CCCOc3ccc4c(C5CCC(=O)NC5=O)nn(C)c4c3)CC2)cccc1-c1ccc(N2CCc3cccc(C(=O)Nc4nc5ccccc5s4)c3C2)nc1C(=O)O (stereo not drawn) [Compound 133, 6-(8-(Benzo[d]thiazol-2-ylcarbamoyl)-3,4-dihydroisoquinolin-2(1H)-yl)-3-(3-(3-(4-(3-((3-(2,6-dioxopiperidin-3-yl)-1-methyl-1H-indazol-6-yl)oxy)propyl)piperazin-1-yl)propoxy)-2-methylphenyl)picolinic acid] | A (Ymin < 50%) | A (Ymin < 50%) | < 100 nM | < 100 nM
8 | Cc1c(Oc2ccccc2CCC(=O)Nc2ccc(C3CCC(=O)NC3=O)cc2)cccc1-c1ccc(N2CCc3cccc(C(=O)Nc4nc5ccccc5s4)c3C2)nc1C(=O)O (stereo not drawn) [Compound 134, 6-(8-(benzo[d]thiazol-2-ylcarbamoyl)-3,4-dihydroisoquinolin-2(1H)-yl)-3-(3-(2-(3-((4-(2,6-dioxopiperidin-3-yl)phenyl)amino)-3-oxopropyl)phenoxy)-2-methylphenyl)picolinic acid] | B (50% ≤ Ymin < 70%) | B (50% ≤ Ymin < 70%) | 100 to 1000 nM | < 100 nM
9 | Cc1c(-c2ccc(N3CCc4cccc(C(=O)Nc5nc6ccccc6s5)c4C3)nc2C(=O)NCC(=O)Nc2ccc3c(C4CCC(=O)NC4=O)nn(C)c3c2)cnn1Cc1ccccc1 (stereo not drawn) [Compound 135, N-(1,3-benzothiazol-2-yl)-2-[5-(1-benzyl-5-methyl-pyrazol-4-yl)-6-[[2-[[3-(2,6-dioxo-3-piperidyl)-1-methyl-indazol-6-yl]amino]-2-oxo-ethyl]carbamoyl]-2-pyridyl]-3,4-dihydro-1H-isoquinoline-8-carboxamide] | B (50% ≤ Ymin < 70%) |  | < 100 nM | 
10 | Cc1c(OCCCN2CCN(CCOc3ccc4c(C5CCC(=O)NC5=O)nn(C)c4c3)CC2)cccc1-c1ccc(N2CCc3cccc(C(=O)Nc4nc5ccccc5s4)c3C2)nc1C(=O)O (stereo not drawn) [Compound 136, 6-(8-(benzo[d]thiazol-2-ylcarbamoyl)-3,4-dihydroisoquinolin-2(1H)-yl)-3-(3-(3-(4-(2-((3-(2,6-dioxopiperidin-3-yl)-1-methyl-1H-indazol-6-yl)oxy)ethyl)piperazin-1-yl)propoxy)-2-methylphenyl)picolinic acid] | B (50% ≤ Ymin < 70%) | B (50% ≤ Ymin < 70%) | 100 to 1000 nM | < 100 nM

The next lines start with the values.

Row | Ymin (6 h) | Ymin (24 h) | DC50 (6 h, read-out: EC50 (6 h)) | DC50 (24 h, read-out: EC50 (24 h)) | SMILES
11 | C (Ymin ≥ 70%) | C (Ymin ≥ 70%) | 1000 to 10000 nM | < 100 nM | Cc1c(O[C@H]2CC[C@H](CCC(=O)Nc3cccc4c(C5CCC(=O)NC5=O)nn(C)c34)CC2)cccc1-c1ccc(N2CCc3cccc(C(=O)Nc4nc5ccccc5s4)c3C2)nc1C(=O)O (stereo partly drawn) [Compound 124a, 6-(8-(benzo[d]thiazol-2-ylcarbamoyl)-3,4-dihydroisoquinolin-2(1H)-yl)-3-(3-(((1r,4r)-4-(3-((3-(2,6-dioxopiperidin-3-yl)-1-methyl-1H-indazol-7-yl)amino)-3-oxopropyl)cyclohexyl)oxy)-2-methylphenyl)picolinic acid]
12 | C (Ymin ≥ 70%) | C (Ymin ≥ 70%) | 1000 to 10000 nM | 1000 to 10000 nM | Cc1c(O[C@H]2CC[C@H](CCC(=O)Nc3ccc4c(C5CCC(=O)NC5=O)nn(C)c4c3)CC2)cccc1-c1ccc(N2CCc3cccc(C(=O)Nc4nc5ccccc5s4)c3C2)nc1C(=O)O (stereo partly drawn) [Compound 125a, 6-(8-(benzo[d]thiazol-2-ylcarbamoyl)-3,4-dihydroisoquinolin-2(1H)-yl)-3-(3-(((1r,4r)-4-(3-((3-(2,6-dioxopiperidin-3-yl)-1-methyl-1H-indazol-6-yl)amino)-3-oxopropyl)cyclohexyl)oxy)-2-methylphenyl)picolinic acid]
13 | C (Ymin ≥ 70%) | C (Ymin ≥ 70%) | 1000 to 10000 nM | < 100 nM | Cc1c(Oc2ccccc2CCCC(=O)Nc2ccc3c(C4CCC(=O)NC4=O)nn(C)c3c2)cccc1-c1ccc(N2CCc3cccc(C(=O)Nc4nc5ccccc5s4)c3C2)nc1C(=O)O (stereo not drawn) [Compound 129, 6-(8-(benzo[d]thiazol-2-ylcarbamoyl)-3,4-dihydroisoquinolin-2(1H)-yl)-3-(3-(2-(4-((3-(2,6-dioxopiperidin-3-yl)-1-methyl-1H-indazol-6-yl)amino)-4-oxobutyl)phenoxy)-2-methylphenyl)picolinic acid]
14 | A (Ymin < 50%) | A (Ymin < 50%) | < 100 nM | < 100 nM | Cc1c(OCCCN2[C@H](C)CN(CC(=O)Nc3ccc4c(C5CCC(=O)NC5=O)nn(C)c4c3)C[C@@H]2C)cccc1-c1ccc(N2CCc3cccc(C(=O)Nc4nc5ccccc5s4)c3C2)nc1C(=O)O (stereo partly drawn) [Compound 131a, 6-[8-(1,3-benzothiazol-2-ylcarbamoyl)-3,4-dihydro-1H-isoquinolin-2-yl]-3-[3-[3-[(2R,6S)-4-[2-[[3-(2,6-dioxo-3-piperidyl)-1-methyl-indazol-6-yl]amino]-2-oxo-ethyl]-2,6-dimethyl-piperazin-1-yl]propoxy]-2-methyl-phenyl]pyridine-2-carboxylic acid]
15 | C (Ymin ≥ 70%) | B (50% ≤ Ymin < 70%) | 1000 to 10000 nM | 100 to 1000 nM | Cc1c(Oc2ccc(CCCC(=O)Nc3ccc4c(C5CCC(=O)NC5=O)nn(C)c4c3)cc2)cccc1-c1ccc(N2CCc3cccc(C(=O)Nc4nc5ccccc5s4)c3C2)nc1C(=O)O (stereo not drawn) [Compound 132, 6-(8-(benzo[d]thiazol-2-ylcarbamoyl)-3,4-dihydroisoquinolin-2(1H)-yl)-3-(3-(4-(4-((3-(2,6-dioxopiperidin-3-yl)-1-methyl-1H-indazol-6-yl)amino)-4-oxobutyl)phenoxy)-2-methylphenyl)picolinic acid]
